{"source": "patent US20140302027A1", "about": "“METHODS OF TREATING PERIODONTAL INFLAMMATION AND PERIODONTAL BONE LOSS” (United States of America as Represented by the Secretary, …, priority 2011, published 2014)", "key": {"[1]": {"test_system": "ligature-induced periodontal bone loss", "test": "Ligature-induced periodontitis model, periodontal bone loss", "assay_type": "in vivo, mice", "settings": "for inhibition of induction of bone loss relative to no-treatment: 1 μg microinjected in gingiva daily (FIG. 26a)", "description": "FIG. 26. Inhibition of bone loss by Del-1 and other treatments that block LFA-1 or IL-17. Ligature-induced periodontal bone loss was assessed in mice treated as follows: (a) 18-month-old (left) and 10-week-old mice (right) were microinjected in the gingiva with Del-1-Fc or Fc control (1 μg) or with anti-IL-17A mAb or isotype control (1 or 10 μg). (b) WT and Itgal^−/− mice received Del-1-Fc or Fc control as above. (c) LFA878 was locally administered at an equal molar concentration with Del-1-Fc (corresponding to 8.4 ng and 1 μg, respectively) or at the indicated higher doses. (d) Anti-LFA-1 or IgG2a control were microinjected at either 1 μg, as was Del-1-Fc, or at 10 μg. (e) Del-1-Fc, anti-LFA-1, anti-ICAM-1, ICAM-1-Fc and their controls were i.v. administered at 50 μg. Data are means±SD (n=5-6 mice per group) from one of two (a,c,e) or three (b,d) independent and representative experiments. Data represent % inhibition of bone loss, which was calculated using the formula: ([Bone loss in the absence of inhibitor−Bone loss in the presence of inhibitor]/Bone loss in the absence of inhibitor)×100. *P<0.05; **P<0.01. NS, not significant.\nThe ligature-induced periodontitis model was used to determine the efficacy of potential therapeutic interventions (see below). Specifically, bone loss was induced by tying a 5-0 silk ligature around the maxillary left second molar, placing the ligature in the gingival sulcus; this treatment induces bone loss in conventional (but not germ-free) mice due to massive bacterial accumulation in the ligated teeth (Graves (2008)). The contralateral molar tooth in each mouse was left unligated (baseline control). Bone loss was examined 5 days after placement of the ligatures, which remained in place in all mice during the experimental period. Using the VIA-170K system, bone measurements were performed on the ligated second molar (3 sites corresponding to mesial cusp, palatal groove, and distal cusp) and the affected adjacent regions (sites corresponding to distal cusp and distal groove of the first molar, and palatal cusp of the third molar). To calculate bone loss, the 6-site total CEJ-ABC distance for the ligated side of each mouse was subtracted from the 6-site total CEJ-ABC distance of the contralateral unligated side of the same mouse.\nTo determine its protective efficacy in ligature-induced periodontitis, Del-1 was used in the form of a fusion protein with the Fc region of human IgG1 (Del-1-Fc) (GenScript). Del-1-Fc (1 μg) was microinjected into the palatal gingiva of the ligated second maxillary molar, one day before placement of the ligature and every day thereafter until the day before sacrifice on day 5. In other experiments, Del-1-Fc was administered systemically by i.v. injection (50 μg), following the same timing schedule as above. The same protocols were used to determine the effect of local (or systemic) administration of mAbs to LFA-1 (clone M17/4, rat IgG2a; BioLegend), ICAM-1 (clone YN1, IgG2b; Biolegend), IL-17A (clone M210, rat IgG2a; Amgen), or IL-17F (clone 316016, rat IgG2a; R&D Systems). Recombinant mouse ICAM-1 fused to the Fc region of human IgG1 (ICAM-1-Fc) as well as an LFA-1 antagonist (LFA878; kindly provided by Novartis) (Weitz-Schmidt (2004)) were also used in bone loss inhibition experiments. Purified azide-free rat IgG2a or IgG2b (BioLegend) and recombinant human IgG1 Fc (R&D Systems) were used as controls for the mAbs and Del-1-Fc, respectively."}, "[2]": {"test_system": "P. gingivalis (Pg)-induced bone loss", "test": "P. gingivalis-induced periodontal bone loss mouse model", "assay_type": "in vivo, mice", "settings": "local gingival injections (FIG. 2C)"}, "[3]": {"test_system": "Del-1 expression in human endothelial cells", "test": "Del-1 mRNA expression in HUVEC stimulated with human IL-17A", "assay_type": "cell-based", "source_text": "FIG. 21. IL-17 downregulates Del-1 expression. (a) Gingival Del-1 mRNA expression in wild-type (WT) and IL17ra^−/− mice determined by qPCR. (b) Sagittal sections of interdental gingiva of WT and Il17ra^−/− mice were stained for Del-1; shown are representative fluorescent confocal images (upper row) and their overlays with corresponding DIC images (lower row). Bar, 50 μm; T, tooth; G, gingiva; S, sulcus. (c) The fluorescence intensities of these and additional representative images from independent mice (5 per group) were quantified using ImageJ analysis. (d) Anti-IL-17A mAb and IgG2a control were microinjected into the gingiva and Del-1 mRNA expression was determined by qPCR. (e) Gingival IL-17A mRNA expression was determined in young (8-10 weeks) and old (18 months) mice using qPCR. (f) Linear-regression analysis of Del-1 versus IL-17A expression in old mice. (g) Determination of Del-1 mRNA expression and MPO amounts in the gingiva of indicated BM chimeric mice (donor BM→lethally irradiated recipient). (h) HUVEC were stimulated with or without human IL-17A and Del-1 mRNA expression was quantified by qPCR (pooled data from four independent experiments). […]\nTotal RNA was extracted from excised gingival tissue or cultured cells using the PerfectPure RNA cell kit (5 Prime, Fisher) and quantified by spectrometry at 260 and 280 nm. […]"}, "[4]": {"test_system": "human neutrophils", "test": "Transmigration assay of human neutrophils through HUVEC monolayer", "assay_type": "cell-based", "settings": "5 μg/ml, towards IL-8 (20 ng/ml)", "description": "FIG. 14. LFA-1 dependence of Del-1 deficiency-associated inflammation and bone loss. (a) Twenty-week-old C57BL/6 wild-type (WT) mice or mice deficient in the indicated molecules were assessed for bone loss relative to 5-week-old WT mice (zero baseline); the dotted line indicates the bone heights of 20-week-old WT mice for ease of comparison. (b) Sagittal sections of interdental gingiva from the same mice were stained for Ly6G; shown are representative overlays of DIC and fluorescent confocal images. (c) The fluorescence intensities of these and additional representative images from independent mice (5 per group) were quantified using ImageJ analysis. (d) Dissected gingiva from the indicated mice were processed for ELISA determination of MPO protein (left) or qPCR determination of PGRP1 transcript abundance (right). (e) Transmigration of human neutrophils through an endothelial cell monolayer (HUVEC) towards IL-8 (20 ng/ml) in the bottom well was determined with or without soluble human Del-1 (5 μg/ml), BSA (5 μg/ml), anti-LFA-1 mAb (10 μg/ml) or IgG1 control (10 μg/ml). […]\nTransmigration assays were performed as previously described (Ley (2007)), using 6.5-mm Transwells with an 8-μm pore size (Corning). […] After 60 min incubation at 37° C., the number of transmigrated cells in the lower compartment was measured (Ley (2007)). […]"}}}
{"molecule": "CC[C@H](C)C(=O)O[C@H]1C[C@@H](C)C=C2C=C[C@H](C)[C@H](CC[C@@H]3C[C@H](CC(=O)NC)N(Cc4ccc(O)c(OC)c4)C(=O)O3)[C@H]21", "note": "[LFA878, reference compound]", "values": [{"measurement": "protection against bone loss compared with Del-1-Fc", "setting": "[1]; local, equal molar amounts (8.4 ng vs 1 μg Del-1-Fc) (FIG. 26c)", "result": "less protective than Del-1-Fc"}, {"measurement": "protection against bone loss compared with Del-1-Fc", "setting": "[1]; locally administered at 1 μg (FIG. 26c)", "result": "almost (but not quite) comparable to Del-1-Fc"}]}
{"molecule": "O=C(NCc1cccc(O)c1)c1cc(Cl)c(C(=O)N[C@@H](CNC(=O)c2cc(O)cc(O)c2)C(=O)O)c(Cl)c1", "note": "[XVA143]", "values": [{"measurement": "P. gingivalis (Pg)-induced bone loss", "setting": "[2]", "result": "inhibited"}]}
{"molecule": "Del-1-Fc: Del-1 as a fusion protein with the Fc region of human IgG1 (GenScript); SEQ ID NO: 5", "values": [{"measurement": "inhibition of induction of bone loss relative to no-treatment", "setting": "[1]; 10-week-old mice", "result": "≈ 80%"}, {"measurement": "inhibition of bone loss", "setting": "[1]; 18-month old mice, microinjected in palatal gingiva daily from day -1 to day 4 (FIG. 7)", "result": "significant inhibition of bone loss"}, {"measurement": "inhibition of induction of bone loss relative to no-treatment", "setting": "[1]; 18-month-old mice", "result": "inhibited"}, {"measurement": "effect against bone loss", "setting": "[1]; Itgal−/− mice (LFA-1 deficient), local (FIG. 26b)", "result": "minor, but not statistically significant, effect"}, {"measurement": "potency in inhibiting periodontal bone loss versus other LFA-1-ICAM-1 inhibitors", "setting": "[1]; given locally or systemically", "result": "more potent"}]}
{"molecule": "human IL-17A: human IL-17A cytokine used to stimulate HUVEC", "values": [{"measurement": "Del-1 expression in human endothelial cells (HUVEC)", "setting": "[3]", "result": "inhibited"}]}
{"molecule": "human Del-1: soluble human Del-1 from R&D Systems; human Del-1 amino acid sequence SEQ ID NO: 1 (protein, listed as Homo sapiens) MKRSVAVWLLVGLSLSVPQFGKGDICDPNPCENGGICLPGLADGSFSCECPDGFTDPNCSSVVEVASDEEEPTSAGPCTPNPCHNGGTCEISEAYRGDTFIGYVCKCPRGFNGIHCQHNINECEVEPCKNGGICTDLVANYSCECPGEFMGRNCQYKCSGPLGIEGGIISNQQITASSTHRALFGLQKWYPYYARLNKKGLINAWTAAENDRWPWIQINLQRKMRVTGVITQGAKRIGSPEYIKSYKIAYSNDGKTWAMYKVKGTNEDMVFRGNIDNNTPYANSFTPPIKAQYVRLYPQVCRRHCTLRMELLGCELSGCSEPLGMKSGHIQDYQITASSIFRTLNMDMFTWEPRKARLDKQGKVNAWTSGHNDQSQWLQVDLLVPTKVTGIITQGAKDFGHVQFVGSYKLAYSNDGEHWTVYQDEKQRKDKVFQGNFDNDTHRKNVIDPPIYARHIRILPWSWYGRITLRSELLGCTEEE", "values": [{"measurement": "LFA-1-dependent transendothelial migration of human neutrophils", "setting": "[4]", "result": "inhibited"}]}
